Entries after “also recorded” stand apart in the source; their conditions may differ.
What was measured:
Vero E6 cell line [1] = settings: compound concentration producing minimal changes in cell morphology, estimated by microscopy
Vero E6 cell line [2] = settings: for CC50: MTT
ZIKV (MR766, Uganda) = type: cell-based, Zika virus; settings: Vero E6; ZIKV MOI 1; five days; highest concentration without cytotoxicity (MCC)
ZIKV [3] = assay: Time of drug addition assay (qRT-PCR); type: cell-based, Zika virus; settings: Vero E6, MOI 1, 50 µM, 24 h pi
Procedure: Vero E6 cells were seeded on 96-well plates at 3.5 × 10^4 well and incubated (37 °C, 5% CO2) overnight. The cells were infected for 1 h with MOI of 1. Cells were treated with 50 µM of compound 7. Cells were treated at three different times: 1 h before infection, concurrently with the infection, and one hour post-infection. After the infection, the supernatant was discarded and the cells were incubated for 24 h with the media, then RNA was isolated from the supernatant and quantified using qRT-PCR (see below).
(§1) For viral RNA isolation, the Total RNA Miniprep Kit (New England Biolabs, Ipswich, USA) was used, following the manufacturer’s instruction. After RNA elution, samples were stored at −80 °C until use. For the determination of viral RNA quantity, we used the Luna® Universal Probe One-Step RT-qPCR Kit (New England Biolabs, Ipswich, MA, USA). The primers used were ZIKV_NS1_F: […], ZIKV_NS1_R: […], and the probe was FAM-5′-CCC GCA GAT-3′ /ZEN/ 5′-TGG CAG CAG-3′-BHQ1. […]
We divided the samples into five groups based on the timing of treatment: no-treatment (ZIKV), pre-treatment for 1 h (pre), co-treatment (co), post-treatment for 1 h (post), and full treatment (full) (Figure 3A). Twenty-four hours post-infection (pi), we isolated viral RNA from the supernatant and quantified it using qRT-PCR. […]

ZIKV [4] = assay: Binding assay (qRT-PCR); type: cell-based, Zika virus; settings: Vero E6; MOI 1; 50 µM; 1 h at 4 °C
Procedure: (§2) Vero E6 cells were seeded on 96 well plate 3.5 × 10^4 well and incubated (37 °C, 5% CO2) overnight. 1 h before the infection we put the cells at 4 °C. During the entry assay cells were infected for 1 h at 4 °C and MOI of 1, then washed twice with PBS. Afterward, they were treated with 50 µM of compound 7, lasting for 1 h (37 °C, 5% CO2). During the binding assay the cells were infected as before for 1 h at 4 °C and at the same time treated with 50 µM of compound 7. Following both of the treatments, the cells were washed once with PBS, then RNA was isolated from the cells. Viral RNA was quantified using qRT-PCR (see below). This assay was developed based on the methods established by Lu et al..
as §1
(§3) To gain a more precise understanding of the mechanism of action of compound 7, binding and entry assays were performed. […] After incubation, cells were washed with PBS prior to RNA extraction, and viral RNA levels were quantified by qRT-PCR.

ZIKV [5] = assay: Entry assay (qRT-PCR); type: cell-based, Zika virus; settings: Vero E6; MOI 1; infection 1 h 4 °C, then 50 µM 1 h 37 °C
Procedure: as §2, §1, §3

ZIKV [6] = assay: Virion inactivation assay (cell-free pre-incubation, plaque assay); type: cell-based, Zika virus
ZIKV [7] = assay: Virion destabilization assay (RNase A, qRT-PCR); type: biochemical, Zika virus; settings: 50 µM, 1 h, 37 °C, then RNase A
ZIKV [8] = assay: Liposome-based capsid protection assay (virus–liposome fusion); type: biochemical, Zika virus; settings: trypsin-containing liposomes; pH 5.3; 10, 50 μM
Vero E6 cells = assay: Phospholipidosis assay (LipidTOX Deep Red); type: cell-based, African green monkey (Cercopithecus aethiops); settings: 48 h
Procedure: Vero E6 cells were seeded in 96-well plates and treated with compound 7 at the indicated concentrations for 48 h. Propranolol (30 µM) was used as a positive control and DMSO as vehicle control. Phospholipid accumulation was detected using LipidTOX™ Deep Red phospholipidosis stain (Thermo Fisher Scientific, Waltham, MA, USA, H34158) according to the manufacturer’s instructions. Nuclei were counterstained with Hoechst 33342. Representative images were acquired by confocal microscopy.

[9] = tested on: SARS-CoV-2 (B.1.5 (G) isolate, Hungarian); type: cell-based, severe acute respiratory syndrome coronavirus 2; settings: Vero E6, 3 days, MTT
CHIKV (Guatemala) = assay: CPE inhibition assay, CHIKV on Vero E6; type: cell-based, chikungunya virus; settings: MOI 0.1, 3 days, MTT

Molecule | MCC (Vero E6 cell line [1]) | CC50 (Vero E6 cell line [2]) | cytopathic effects (microscopy) (ZIKV (MR766, Uganda)) | further results
CC(=O)N[C@H]1[C@H](O[C@@H]2c3ccc(c(Cl)c3)Oc3cc4cc(c3O)Oc3ccc(cc3Cl)C[C@H]3NC(=O)[C@H](n5cc(COCCOCCCC(F)(F)C(F)(F)C(F)(F)C(F)(F)C(F)(F)C(F)(F)C(F)(F)C(F)(F)F)nn5)c5ccc(O)c(c5)Oc5cc(O)cc(c5)[C@H](NC3=O)C(=O)N[C@H]4C(=O)N[C@H]3C(=O)N[C@@H]2C(=O)N[C@H](C(=O)O)c2cc(O)cc(O)c2-c2cc3ccc2O)O[C@H](CO)[C@@H](O)[C@@H]1O [Compound 1] | >50 µM | 149 µM | – | –
CC(=O)N[C@H]1[C@H](O[C@@H]2c3ccc(c(Cl)c3)Oc3cc4cc(c3O)Oc3ccc(cc3Cl)C[C@H]3NC(=O)[C@H](n5cc(COCCOCCCC(F)(F)C(F)(F)C(F)(F)C(F)(F)C(F)(F)C(F)(F)F)nn5)c5ccc(O)c(c5)Oc5cc(O)cc(c5)[C@H](NC3=O)C(=O)N[C@H]4C(=O)N[C@H]3C(=O)N[C@@H]2C(=O)N[C@H](C(=O)O)c2cc(O)cc(O)c2-c2cc3ccc2O)O[C@H](CO)[C@@H](O)[C@@H]1O [Compound 2] | >40 µM | 195 µM | we did not observed any CPE; also recorded: No cytopathic effects were observed | –
CC(=O)N[C@H]1[C@H](O[C@@H]2c3ccc(c(Cl)c3)Oc3cc4cc(c3O)Oc3ccc(cc3Cl)C[C@H]3NC(=O)[C@H](n5cc(COCCOCCCC(F)(F)C(F)(F)C(F)(F)C(F)(F)F)nn5)c5ccc(O)c(c5)Oc5cc(O)cc(c5)[C@H](NC3=O)C(=O)N[C@H]4C(=O)N[C@H]3C(=O)N[C@@H]2C(=O)N[C@H](C(=O)O)c2cc(O)cc(O)c2-c2cc3ccc2O)O[C@H](CO)[C@@H](O)[C@@H]1O [Compound 3] | >50 µM | 198 µM | we did not observed any CPE; also recorded: No cytopathic effects were observed | –
CC(=O)N[C@H]1[C@H](O[C@@H]2c3ccc(c(Cl)c3)Oc3cc4cc(c3O)Oc3ccc(cc3Cl)C[C@H]3NC(=O)[C@H](NC(=O)CCC(F)(F)C(F)(F)C(F)(F)C(F)(F)C(F)(F)C(F)(F)C(F)(F)C(F)(F)F)c5ccc(O)c(c5)Oc5cc(O)cc(c5)[C@H](NC3=O)C(=O)N[C@H]4C(=O)N[C@H]3C(=O)N[C@@H]2C(=O)N[C@H](C(=O)O)c2cc(O)cc(O)c2-c2cc3ccc2O)O[C@H](CO)[C@@H](O)[C@@H]1O [Compound 6] | >60 µM | 175 µM | we did not observed any CPE; also recorded: No cytopathic effects were observed | –
CC(=O)NC1C(OC2c3ccc(c(Cl)c3)Oc3cc4cc(c3O)Oc3ccc(cc3Cl)CC3NC(=O)C(NC(=O)CCC(F)(F)C(F)(F)C(F)(F)C(F)(F)C(F)(F)C(F)(F)F)c5ccc(O)c(c5)Oc5cc(O)cc(c5)C(NC3=O)C(=O)NC4C(=O)NC3C(=O)NC2C(=O)NC(C(=O)O)c2cc(O)cc(O)c2-c2cc3ccc2O)OC(CO)C(O)C1O (stereo not drawn) [Compound 7] | >60 µM | 203 µM | No cytopathic effects were observed | viral RNA level vs no-treatment, pre-treatment (before infection) (ZIKV [3]; 1 h before infection): No significant inhibition; viral RNA level vs no-treatment, post-treatment (after viral entry) (ZIKV [3]; 1 h post-infection): No significant inhibition; viral RNA level, binding assay, treated vs control (ZIKV [4]): No significant differences; viral RNA level, entry assay, treated vs control (ZIKV [5]): No significant differences; reduction of viral titer vs untreated control (ZIKV [6]): approximately one order of magnitude; viral RNA copy number vs negative control (virion integrity) (ZIKV [7]): No significant reduction; capsid protein signal under low-pH fusion conditions (Western blot) (ZIKV [8]): preserved the capsid signal; concentration from which phospholipidosis is detectable (Vero E6 cells): ≥ 2500 nM; phospholipidosis response (Vero E6 cells; positive control propranolol 30 µM): weak phospholipidosis response
COC(=O)C1NC(=O)C2NC(=O)C(NC(=O)C3NC(=O)C4NC(=O)C(NC(=O)C(NC(=O)CCC(F)(F)C(F)(F)C(F)(F)C(F)(F)C(F)(F)C(F)(F)C(F)(F)C(F)(F)F)c5ccc(O)c(c5)Oc5cc4cc(O)c5C)C(O)c4ccc(cc4)Oc4cc3cc(c4O)Oc3ccc(cc3)C2O)c2ccc(O)c(c2)-c2c(O)cc(O)cc21 (stereo not drawn) [Compound 8] | >20 µM | 62.6 µM | – | cytotoxic effects (in words) (Vero E6 cell line [2]): slightly cytotoxic
Teicoplanin [reference compound] | >60 µM | 280 µM | – | EC50 [9]: 33.9 µM; EC50 (CHIKV (Guatemala)): 86.2 µM

— publication PMC13415800 (Pharmaceutics, 2026)
